Source: ChEMBL document CHEMBL1759878, “Design of semisynthetic analogues and 3D-QSAR study of eunicellin-based diterpenoids as prostate cancer migration and invasion inhibitors” (Eur J Med Chem, 2011)
The source made the active and inactive calls. The calls are words filed in the database; no cut-off is given here.

Columns and labels:
Type in all cases: functional, cell-based
PC-3 [1] = experiment: Antimigratory activity against human PC3 cells assessed as inhibition of cell migration after 24 hrs by wound healing assay; conditions: PC-3, 24 h
PC-3 [2] = experiment: Antimigratory activity against human PC3 cells assessed as migrated cells measured under microscope at 37 uM after 24 hrs by wound healing assay relative to control
PC-3 [3] = experiment: Antiinvasive activity against human PC3 cells assessed as inhibition of cells invaded across basement membrane extract at 50 uM by calcein-acetomethylester fluorescence analysis

Structure (SMILES) | IC50 (PC-3 [1]; read-out: IC50) [µM] | IC50 (PC-3 [1]; read-out: pIC50 (converted)) [µM] | Activity (PC-3 [2]) | Activity (PC-3 [3])
C=C1CC[C@H](C(C)C)[C@@H]2[C@H]1[C@H]1CC(=C)[C@@H](O)CC[C@@](C)(OC(C)=O)[C@@H]2O1 | 44 | 44 |  | 
CC(=O)O[C@]1(C)CC[C@H](C(C)C)[C@@H]2[C@H]1[C@H]1C[C@]3(C)CCC[C@@](C)(O3)[C@@H]2O1 | 52 | 52 |  | 
C=C1CC[C@H](C(C)C)[C@@H]2[C@H]1[C@H]1CC(=C)[C@@H](OC(C)=O)CC[C@@](C)(OC(C)=O)[C@@H]2O1 | 36 | 36 |  | 
C=C1CC[C@H](C(C)C)[C@@H]2[C@H]1[C@H]1CC(=C)[C@@H](OC(=O)NCCCCCCCC)CC[C@@](C)(O)[C@@H]2O1 | 122 | 122 |  | 
C=C1CC[C@H](C(C)C)[C@@H]2[C@H]1[C@H]1CC(=C)[C@@H](OC(=O)Nc3ccccc3)CC[C@@](C)(O)[C@@H]2O1 | 57 | 57 |  | 
C=C1CC[C@H](C(C)C)[C@@H]2[C@H]1[C@H]1CC(=C)[C@@H](OC(=O)NCCCCC)CC[C@@](C)(O)[C@@H]2O1 | 43 | 43 |  | 
C=C1CC[C@H](C(C)C)[C@@H]2[C@H]1[C@H]1CC(=C)[C@@H](OC(=O)NCCCC)CC[C@@](C)(O)[C@@H]2O1 | 37 | 37 | Active | Active
C=C1CC[C@H](C(C)C)[C@@H]2[C@H]1[C@H]1CC(=C)[C@@H](OC(=O)N(Cc3ccccc3)C(=O)NCc3ccccc3)CC[C@@](C)(O)[C@@H]2O1 | 30 | 30 |  | Active
C=CCNC(=O)N(CC=C)C(=O)N(CC=C)C(=O)O[C@H]1CC[C@@](C)(O)[C@@H]2O[C@H](CC1=C)[C@H]1C(=C)CC[C@H](C(C)C)[C@H]12 | 97 | 97 |  | 
C=C1CC[C@H](C(C)C)[C@@H]2[C@H]1[C@H]1CC(=C)[C@@H](OC(=O)NCCCCl)CC[C@@](C)(O)[C@@H]2O1 | 67 | 67 |  | 
C=C1C[C@H]2O[C@H]([C@H]3[C@@H]2[C@]2(CC[C@@H]3C(C)C)CO2)[C@](C)(O)CC[C@@H]1OC(=O)N(Cc1ccccc1)C(=O)NCc1ccccc1 | 70 | 70 |  | 
C=C1C[C@H]2O[C@H]([C@H]3[C@@H]2[C@]2(CC[C@@H]3C(C)C)CO2)[C@](C)(O)CC[C@@H]1OC(=O)NCCCC (relative stereo) | 90 | 90 |  | 
C=C1C[C@H]2O[C@H]([C@H]3[C@@H]2[C@]2(CC[C@@H]3C(C)C)CO2)[C@](C)(O)CC[C@@H]1O (relative stereo) | 160 | 160 |  | Active
C=C1CC[C@H](C(C)C)[C@@H]2[C@H]1[C@H]1C[C@](C)(O)[C@@H](OC)CCC(C)(O)[C@@H]2O1 (single isomer, unassigned) [SCLEROPHYTIN F METHYL ETHER] | 59 | 59 |  | 
C=C1CC[C@H](C(C)C)[C@@H]2[C@H]1[C@H]1C/C(C)=C\CC[C@@](C)(O)[C@@H]2O1 [6Z-CLADIELLIN] | 84 | 84 |  | 
C=C1CC[C@H](C(C)C)[C@@H]2[C@H]1[C@@H]1CC(=C)[C@@H](O)CC[C@](C)(O)[C@H]2O1 [CLADIELLISIN] | 88 | 88 |  | Active
C=C1C[C@H]2O[C@H]([C@@H]3[C@@H](C(C)C)[C@H](O)C[C@@](C)(OC(C)=O)[C@@H]32)[C@](C)(OC(C)=O)CC[C@@H]1O [KLYSIMPLEXIN E] | 125 | 125 |  | 
CC(=O)O[C@]1(C)CC[C@H](C(C)C)[C@@H]2[C@H]1[C@H]1C[C@](C)(O)[C@@H](O)CC[C@@](C)(OC(C)=O)[C@@H]2O1 [KLYSIMPLEXIN G] | 16 | 16 |  | 
CCCC(=O)O[C@]1(C)CC[C@H](C(C)C)[C@@H]2[C@H]1[C@H]1C[C@](C)(O)[C@@H](O)CC[C@@](C)(OC(C)=O)[C@@H]2O1 [PACHYCLADIN A] | 5 | 5 |  | 
C=C1C[C@H]2O[C@H]([C@@H]3[C@@H](C(C)C)[C@H](O)C[C@@](C)(OC(=O)CCC)[C@@H]32)[C@](C)(OC(C)=O)CC[C@@H]1O [PACHYCLADIN B] | 88 | 88 |  | 
C=C1CC[C@H](C(C)C)[C@@H]2[C@H]1[C@H]1CC(=C)[C@@H](OC(C)=O)CC[C@@](C)(O)[C@@H]2O1 [PACHYCLADIN C] | 56 | 56 |  | 
C=C1CC[C@H](C(C)C)[C@@H]2[C@H]1[C@H]1CC(=C)[C@]3(O)CC[C@@](C)(O3)[C@@H]2O1 [PACHYCLADIN D] | 75 | 75 |  | 
C=C1C[C@H]2O[C@H]([C@H]3[C@@H]2[C@](C)(OC(C)=O)CC[C@@H]3C(C)C)[C@@]2(C)CC[C@]1(O)O2 [PACHYCLADIN E] | 64 | 64 |  | 
C=C1CC[C@H](C(C)C)[C@@H]2[C@H]1[C@H]1C[C@](C)(O)[C@@H](OCC)CC[C@@](C)(O)[C@@H]2O1 [PATAGONICOL] | 76 | 76 |  | 
C=C1CC[C@H](C(C)C)[C@@H]2[C@H]1[C@H]1C[C@](C)(O)[C@@H](O)CC[C@@](C)(O)[C@@H]2O1 [SCLEROPHYTIN A] | 84 | 84 |  | 
C=C1CC[C@H](C(C)C)[C@@H]2[C@H]1[C@H]1C[C@](C)(O)[C@@H](O)CC[C@@](C)(OC(C)=O)[C@@H]2O1 [SCLEROPHYTIN B] | 160 | 159 |  | 
